Data as given in patent publication US8420660B2, “Antitubercular alkaloid” (priority 2011, dated 2013).

Key:
[1] = tested on: Mycobacterium tuberculosis H37Rv (ATCC 27294); assay: Primary screen (dose response), Microplate Alamar Blue Assay (MABA), IC90; format: cell-based; conditions: M. tuberculosis H37Rv, BACTEC 12B medium, Level-I assay
Procedure: Primary Screen (Dose Response): Determination of a 90% Inhibitory Concentration (IC90). The initial screen is conducted against Mycobacterium tuberculosis H37Rv (ATCC 27294) in BACTEC 12B medium using the Microplate Alamar Blue Assay (MABA). Compounds are tested in ten 2-fold dilutions, typically from 100 μg/mL to 0.19 μg/mL. The IC90 is defined as the concentration effecting a reduction in fluorescence of 90% relative to controls. This value is determined from the dose-response curve using a curve-fitting program. Any IC90 value of ≦10 μg/mL is considered “Active” for antitubercular activity.

VERO cell = format: cell-based; conditions: VERO cell CC50 (72 hours exposure) / M. tuberculosis H37Rv IC90

10,12-diheptanoyl-11-hydroxy-3-methyl-β-carboline [Compound I]
IC90 (90% inhibitory concentration), antituberculosis activity [1]: 0.948 mg/L
Selectivity Index (SI) = CC50 divided by IC90 (VERO cell): > 105.48
